Here are results for 13 compounds from patent publication US4104390A, “Thieno [2,3-c] and [3,2-c] pyridines” (Parcor, priority 1976, dated 1978).

Read-outs that look alike come from different tables or passages of the source.

Assay [1] relates to carrageenin-induced localized edema. As to the kind of experiment: Carrageenin-induced localized edema method. The format is in vivo. The following applies: Rattus norvegicus, po, rats, 100 mg/kg orally at -1, 0, 1 and 2.5 hours. As for the experimental part:
(a) Carrageenin-induced localized edema method
0.1 ml of a 1% carrageenin solution is injected in the metatarsal flexor muscles of the right hind limb of rats at time 0. The animals of the treated group are additionally orally administered 100 mg/kg of the test derivative, respectively one hour prior to injection of the phlogogenic agent, simultaneously with said injection, and then 1 hour and 2.5 hours thereafter. The determinations effected by means of a ROCH micrometer at times 0, 1 hour, 2 hours, 3 hours and 5 hours after carrageenin administration make it possible to determine, as a function of time, the percent anti-inflammatory activity with respect to the reference group.

For assay [2], the system named is A.D.P.-induced blood-platelet aggregation. As to the kind of experiment: A.D.P.-induced blood-platelet aggregation. It counts as in vivo, Wistar rats. Conditions: Rattus norvegicus, po, rats, 100 mg/kg orally, 3 hours after treatment, 10 μM A.D.P. solution, with respect to control group. As for the experimental part:
(§1) Blood is taken from the jugular vein of Wistar rats. From this citrated blood, and after centrifugation, is reconstituted a plasma containing 600,000 ± 20,000 blood-platelets per ml which is used in all aggregation determinations.
(§2) 0.4 ml plasma is placed in a siliconized tube provided with a magnet bar, also siliconized. The tube is introduced into an aggregometer coupled with an apparatus for recording optical density variations. When light transmission has reached a stable value, 0.5 ml of a solution containing 10 μM A.D.P. (Adenosine-Di-Phosphate) is introduced into the tube.
(§3) Blood-platelet aggregation causes an increase of light transmission followed by a decrease subsequent to the deaggregation phase.
(§4) The maximal optical density variation thus determined characterizes the intensity of the aggregation.
(§5) Different groups of 20 rats are used, each group being orally administered a test derivative at a dosage of 100 mg/kg.

Assay [3] deals with ovalbumen-induced systemic edema. As to the kind of experiment: Ovalbumen-induced systemic edema method. It counts as in vivo. Conditions: Rattus norvegicus, po, rats, 100 mg/kg orally 1 hour before and with ovalbumen. Here is the method: (b) Ovalbumen-induced systemic edema method
Simultaneous injection of 1 ml ovalbumen and 0.5 ml of a 1% aqueous Evans Blue solution is effected in rats. On the other hand, the animals of the treated group are administered orally 100 mg/kg of the test derivative one hour prior to ovalbumen administration and simultaneously with said administration. The intensity of the phenomenon thus induced is scored according to a scale from 1 to 5 depending on the progress of the inflammatory syndrome. The mean intensity of the edem and the percent decrease of the edema reaction with respect to the control group are thus determined as a function of time.

For assay [4], the system named is collagen-induced blood-platelet aggregation. The assay can be described thus: Collagen-induced blood-platelet aggregation. The following applies: Rattus norvegicus, po; rats, 100 mg/kg orally, 3 hours after treatment, collagen (bovine tendon extract), with respect to control group; read-out: Percent inhibition of blood-platelet aggregation, Collagen. It counts as in vivo, Wistar rats. As for the experimental part:
as §1, §2, §3, §4
The A.D.P. solution is substituted with a collagen solution (bovine tendon extract).
as §5

[5] abbreviates: 1 hour after carrageenin, read-out: Percent anti-inflammatory activity after 1 hour.
Setting [6] is: 2 hours after carrageenin, read-out: Percent anti-inflammatory activity after 2 hours.
Setting [7] is: 3 hours after carrageenin, read-out: Percent anti-inflammatory activity after 3 hours.
The mark [8] stands for this setting: 5 hours after carrageenin, read-out: Percent anti-inflammatory activity after 5 hours.
The mark [9] stands for this setting: read-out: Percent inhibition of blood-platelet aggregation, A.D.P.
Setting [10] is: 2 hours after ovalbumen, read-out: Percent anti-inflammatory activity after 2 hours.
[11] abbreviates: 3 hours after ovalbumen, read-out: Percent anti-inflammatory activity after 3 hours.

One may read the inhibition as how much of the control response was suppressed. On to `COc1ccc(C2CN(Cc3ccccc3Cl)Cc3sccc32)cc1` (centres unmarked) [derivative n°7, 6-o-Chlorobenzyl-4-p-methoxyphenyl-4,5,6,7-tetrahydro-thieno[2,3-c]pyridine], for which the inhibition in vivo at 100 mg/kg was 44% in assay [1] (setting [5]); 50% in assay [1] (setting [6]); 54% in assay [1] (setting [7]); 59% in assay [1] (setting [8]); 52% in assay [3] (setting [10]); 59% in assay [3] (setting [11]). In addition, the inhibition at 100 mg/kg is 61.5% in assay [2] (setting [9]) and 90.7% in assay [4].

Turning to `COC(=O)c1ccccc1CN1Cc2ccsc2C(c2ccccc2)C1` (centres unmarked) [derivative n°28, 5-o.Methoxycarbonylbenzyl-7-phenyl-4,5,6,7-tetrahydro-thieno[3,2-c]pyridine], the inhibition in vivo at 100 mg/kg in assay [1] (setting [5]) is 41%; in assay [1] (setting [6]) it was 47%; in assay [1] (setting [7]), 51%; in assay [1] (setting [8]), 53%; in assay [3] (setting [10]), 45%; in assay [3] (setting [11]), 52%. Also, the inhibition at 100 mg/kg in assay [2] (setting [9]) came out at 62.3%; in assay [4], 92.2%.

Take `Cc1ccc(C2CN(Cc3ccccc3Cl)Cc3sccc32)cc1` (centres unmarked) [derivative n°10, 6-o.Chlorobenzyl-4-p.tolyl-4,5,6,7-tetrahydrothieno[2,3-c]pyridine]: the inhibition in vivo at 100 mg/kg came out at 38% in assay [1] (setting [5]); 45% in assay [1] (setting [6]); 48% in assay [1] (setting [7]); 52% in assay [1] (setting [8]); 53% in assay [3] (setting [10]); 60% in assay [3] (setting [11]). Moreover, the inhibition at 100 mg/kg was found to be 65% in assay [2] (setting [9]) and 96% in assay [4].

As to `CC1NCc2ccsc2C1c1ccccc1` (centres unmarked) [derivative n°2, 6-Methyl-7-phenyl-4,5,6,7-tetrahydro-thieno[3,2-c]pyridine], the inhibition in vivo at 100 mg/kg came to 42% in assay [1] (setting [5]); 48% in assay [1] (setting [6]); 51% in assay [1] (setting [7]); 54% in assay [1] (setting [8]); 42% in assay [3] (setting [10]); 50% in assay [3] (setting [11]). In addition, the inhibition at 100 mg/kg in assay [2] (3 h, heading: Percent inhibition of blood-platelet aggregation) is 62.4%; in assay [4], 92.7%.

In the case of `c1ccc(CCN2Cc3ccsc3C(c3ccccc3)C2)cc1` (centres unmarked) [derivative n°20, 5-Phenethyl-7-phenyl-4,5,6,7-tetrahydro-thieno[3,2-c]pyridine], the inhibition in vivo at 100 mg/kg in assay [1] (setting [5]) was 43%; in assay [1] (setting [6]), 48%; in assay [1] (setting [7]), 52%; in assay [1] (setting [8]), 55%; in assay [3] (setting [10]) it was 53%; in assay [3] (setting [11]) it was 61%. Moreover, the inhibition at 100 mg/kg was found to be 63.6% in assay [2] (setting [9]) and 94.2% in assay [4].

In the case of `COC(=O)c1ccccc1CN1Cc2sccc2C(c2ccccc2)C1` (centres unmarked) [derivative n°15, 6-o.Methoxycarbonylbenzyl-4-phenyl-4,5,6,7-tetrahydro-thieno[2,3-c]pyridine], the inhibition in vivo at 100 mg/kg was determined as 39% in assay [1] (setting [5]); 47% in assay [1] (setting [6]); 50% in assay [1] (setting [7]); 54% in assay [1] (setting [8]); 54% in assay [3] (setting [10]); 62% in assay [3] (setting [11]). Also, the inhibition at 100 mg/kg worked out at 61.7% in assay [2] (setting [9]) and 92.3% in assay [4].

On to `c1ccc(C2CNCc3ccsc32)cc1` (centres unmarked) [derivative n°4, 7-Phenyl-4,5,6,7-tetrahydro-thieno[3,2-c]pyridine], for which the inhibition in vivo at 100 mg/kg in assay [1] (setting [5]) came out at 38%; in assay [1] (setting [6]) it was 44%; in assay [1] (setting [7]), 49%; in assay [1] (setting [8]) it was 53%; in assay [3] (setting [10]), 54%; in assay [3] (setting [11]) it was 62%. For the same compound, the figures for the inhibition at 100 mg/kg in assay [2] (setting [9]) and in assay [4] were 64% and 95%, respectively.

In the case of `N#Cc1ccccc1CN1Cc2ccsc2C(c2ccccc2)C1` (centres unmarked) [derivative n°26], the inhibition in vivo at 100 mg/kg in assay [1] (setting [5]) amounted to 44%; in assay [1] (setting [6]) it was 49%; in assay [1] (setting [7]), 52%; in assay [1] (setting [8]), 56%; in assay [3] (setting [10]) it was 48%; in assay [3] (setting [11]) it was 54%. Moreover, the inhibition at 100 mg/kg in assay [2] (setting [9]) was 60.9%; in assay [4], 90.2%.

With `COc1cc(CN2Cc3sccc3C(c3ccccc3)C2)cc(OC)c1OC` (centres unmarked) [derivative n°14, 4-Phenyl-6-(3,4,5-trimethoxy-benzyl)-4,5,6,7-tetrahydro-thieno[2,3-c]pyridine], the inhibition in vivo at 100 mg/kg in assay [1] (setting [5]) amounted to 37%; in assay [1] (setting [6]) it was 44%; in assay [1] (setting [7]), 49%; in assay [1] (setting [8]), 54%; in assay [3] (setting [10]), 43%; in assay [3] (setting [11]), 52%. In addition, the figures for the inhibition at 100 mg/kg in assay [2] (setting [9]) and in assay [4] were 64.1% and 93.9%, respectively.

With `O=C(O)c1ccccc1CN1Cc2sccc2C(c2ccccc2)C1` (centres unmarked) [derivative n°16, 6-o.Carboxybenzyl-4-phenyl-4,5,6,7-tetrahydro-thieno[2,3-c]pyridine], the inhibition in vivo at 100 mg/kg in assay [1] (setting [5]) came out at 39%; in assay [1] (setting [6]) it was 45%; in assay [1] (setting [7]), 50%; in assay [1] (setting [8]) it was 52%; in assay [3] (setting [10]) it was 49%; in assay [3] (setting [11]) it was 56%. Also, the inhibition at 100 mg/kg in assay [2] (setting [9]) was 63.2%; in assay [4], 94.1%.

For `CC1C(c2ccccc2)c2sccc2CN1Cc1ccc([N+](=O)[O-])cc1` (centres unmarked) [derivative n°22, 6-Methyl-5-p.nitrobenzyl-7-phenyl-4,5,6,7-tetrahydro-thieno[3,2-c]pyridine], the inhibition in vivo at 100 mg/kg stood at 41% in assay [1] (setting [5]); 49% in assay [1] (setting [6]); 53% in assay [1] (setting [7]); 56% in assay [1] (setting [8]); 50% in assay [3] (setting [10]); 57% in assay [3] (setting [11]). Further, the figures for the inhibition at 100 mg/kg in assay [2] (setting [9]) and in assay [4] were 63.4% and 94.6%, respectively.

`N#Cc1ccccc1CN1Cc2sccc2C(c2ccccc2)C1` (centres unmarked) [derivative n°8, 6-o.Cyanobenzyl-4-phenyl-4,5,6,7-tetrahydro-thieno[2,3-c]pyridine]: the inhibition in vivo at 100 mg/kg is 42% in assay [1] (setting [5]); 49% in assay [1] (setting [6]); 53% in assay [1] (setting [7]); 56% in assay [1] (setting [8]); 46% in assay [3] (setting [10]); 54% in assay [3] (setting [11]). The inhibition at 100 mg/kg stood at 63.2% in assay [2] (setting [9]) and 92.5% in assay [4].

On to `c1ccc(CCN2Cc3sccc3C(c3ccccc3)C2)cc1` (centres unmarked) [derivative n°25, 6-Phenethyl-4-phenyl-4,5,6,7-tetrahydro-thieno[2,3-c]pyridine], for which the inhibition in vivo at 100 mg/kg in assay [1] (setting [5]) was determined as 47%; in assay [1] (setting [6]), 52%; in assay [1] (setting [7]), 56%; in assay [1] (setting [8]) it was 60%; in assay [3] (setting [10]), 44%; in assay [3] (setting [11]), 51%. In addition, the inhibition at 100 mg/kg in assay [2] (setting [9]) came out at 64.1%; in assay [4] it was 93.8%.
